Measured values reported in patent US20240425966A1, “GAS-ASSISTED COCRYSTAL DE-SUBLIMATION” (THE REGENTS OF THE UNIVERSITY OF MICHIGAN, priority 2021, published 2024).

Tests used:
[1] = Differential scanning calorimetry (DSC), enthalpy of melting; assay type: physicochemical; conditions: 40-400° C., 10° C. per minute, initial heating curve
Procedure: (§1) To determine optimal process temperature, differential scanning calorimetry (DSC) and thermogravimetric analysis (TGA) were performed on the pure components, as well as on the cocrystal, shown in FIG. 2. A TA instruments DSC Q200 was used with a 40-400° C. heating range and 10° C. per minute heating rate. Only initial heating curves were collected and analyzed, without a cooling and secondary heating step. The initial melting peak temperature and enthalpy of melting values for each sample was determined using Universal Analysis software from TA instruments. A TA Instruments TGA Q500 was used with a 25-400° C. heating range and a 10° C. per minute heating rate. Powder was placed into a 5 mm diameter aluminum sample pan centered in a platinum hang pan. Enthalpies of sublimation were determined by plotting the logarithm of mass loss rate (−dm/dt) versus inverse temperature (1000/T).

[2] = Thermogravimetric analysis (TGA), enthalpy of sublimation from Arrhenius plot of mass loss rate; assay type: physicochemical; conditions: for Sublimation ΔHsub: 25-400° C., 10° C. per minute, slope of log mass loss rate versus 1000/T; for Sublimation Tlow: lower temperature of sublimation range; for Sublimation Thigh: upper temperature of sublimation range
Procedure: as §1

[3] = Thermal stability (decomposition temperature); assay type: physicochemical; conditions: heating
From the text: Thermal analysis provides a good basis to determine the process window for successful cocrystal de-sublimation. The target temperature for the process is preferably in a region where sublimed API and conformer readily remain in the vapor phase. Too low, and the less volatile compound may de-sublimate within the heated tube, altering the ratio of API to conformer reaching a cooled surface (26). Moreover, decreasing temperature reduces sublimation rate and thus restricts the amount of material that can be processed. The upper temperature limit of the process is largely dictated by the thermal stability of each component. For example, CBZ may begin to decompose appreciably before reaching 180° C., limiting the heating temperature to well below its melting temperature. […] On the other hand, IND is stable up to 248° C., well above its melting temperature (27).

[4] = heating; reference (27); cited from earlier work

**Q.** Which “Melting ΔHmelt” value [1] does the source give for `NC(=O)N1c2ccccc2C=Cc2ccccc21` [CBZ, carbamazepine] here?
**A.** 6.33 kcal/mol

**Q.** What about the “Sublimation ΔHsub” value [2] of the same compound?
**A.** 48.59 kcal/mol

**Q.** What about the “Sublimation Tlow” value [2] of the same compound?
**A.** 220 °C

**Q.** And the “Sublimation Thigh” value [2]?
**A.** 280 °C

**Q.** What about the “temperature before which decomposition may begin appreciably” value [3] of the same compound?
**A.** < 180 °C

**Q.** For `O=C1NS(=O)(=O)c2ccccc21` [SAC, saccharine], which “Melting ΔHmelt” value [1] is on record?
**A.** 8.68 kcal/mol

**Q.** What about the “Sublimation ΔHsub” value [2] of the same compound?
**A.** 25.57 kcal/mol

**Q.** And the “Sublimation Tlow” value [2]?
**A.** 200 °C

**Q.** What about the “Sublimation Thigh” value [2] of the same compound?
**A.** 290 °C

**Q.** Which “Melting ΔHmelt” value [1] does the source give for `COc1ccc2c(c1)c(CC(=O)O)c(C)n2C(=O)c1ccc(Cl)cc1` [IND, indomethacin] here?
**A.** 8.01 kcal/mol

**Q.** And the “Sublimation ΔHsub” value [2]?
**A.** 27.29 kcal/mol

**Q.** And the “Sublimation Tlow” value [2]?
**A.** 200 °C

**Q.** And the “Sublimation Thigh” value [2]?
**A.** 320 °C

**Q.** And the “stable up to (temperature)” value [4]?
**A.** 248 °C

**Q.** Which “Melting ΔHmelt” value [1] does the source give for `O=C(O)CCC(=O)O` [SUC, succinic acid] here?
**A.** 7.89 kcal/mol

**Q.** And the “Sublimation ΔHsub” value [2]?
**A.** 23.1 kcal/mol

**Q.** What about the “Sublimation Tlow” value [2] of the same compound?
**A.** 140 °C

**Q.** What about the “Sublimation Thigh” value [2] of the same compound?
**A.** 230 °C
